Source: patent US12415785B2, “Compound modulators of sting” (CTXT PTY LTD, priority 2019, dated 2025)

Columns and labels:
human STING (WT) = human STING (WT) (Homo sapiens (Human), UniProt Q86WV6, H232R); assay: Surface plasmon resonance (SPR), STING (WT); type: binding; conditions: biotinylated STING on streptavidin chip, 8° C.
Method: Biophysical experiments were performed with three different recombinant human STING protein variants designated according to allelic nomenclature of Yi et al., (2013). Codon optimized DNA sequences (for expression in Escherichia coli) encoding amino acid residues 149 to 345 (Swiss Prot Q86WV6) of human STING (WT), human STING (HAQ) and human STING (R232H) were synthesised by GenScript USA Inc (Piscataway, New Jersey, USA). These were ligated into a modified pET43a E. coli expression vector designed to encode N-terminal His tag followed by tobacco etch virus protease (TEV) cleavage site and a STING gene sequence. The resulting protein sequences for the three allelic variants are listed below:
Binding interactions of ligands with STING proteins were quantified using Surface Plasmon Resonance (SPR) with a minimally biotinylated STING protein immobilized on a streptavidin chip surface. […] Minimal biotinylation of purified huSTING proteins was performed using a previously described methodology (Chhabra 2012). Briefly, approximately 20 nmol of recombinant STING protein in 1×TBS buffer (25 mM Tris-HCl, pH 7.5, 150 mM NaCl, 5 mM DTT) was mixed with of EZ-Link™ Sulfo-NHS-LC-LC-Biotin (Thermofisher Scientific, cat #21338) at a molar ratio of 1 to 0.6 and incubated on ice for 2 hours. To remove any unreacted biotin reagent, protein/biotin mixture was passed through a Superdex 75 (10/300 GL) column equilibrated with 10 mM HEPES, pH7.4, 150 mM NaCl, 5 mM DTT, 5%[v/v] glycerol. A protein peak containing biotinylated huSTING protein was collected and stored in aliquots at −80° C.
Streptavidin was simultaneously immobilized in all four channels of a CM5 sensor chip docked in a Biacore instrument (either Biacore S200 or Biacore T200, GE Healthcare) as described previously (Zender 2013). Minimally biotinylated STING protein was captured onto a streptavidin coated chip surface at 8° C. in SPR binding buffer (50 mM HEPES, pH 7.4, 150 mM NaCl, 2%[v/v] DMSO) by gradually injecting in a single channel at a constant flow-rate of 2 μL/min until desired capture level was achieved, typically 3000 to 7000 RU (1 RU=1 pg/mm^2).
All binding experiments were performed at 8° C. in SPR binding buffer. To determine binding affinity, compound interaction with immobilized STING protein was analysed using dose-response experiments. Fresh 10 mM DMSO solutions of compound were diluted directly into SPR binding buffer typically to a concentration of 50 μM and then further diluted 2-fold or 3-fold aiming for either a 5- or 7-point concentration series range. Each ligand concentration series was injected at a constant flow rate of 60 μL/min with a 90 second association and a 180 second dissociation time. These were modified for compounds with longer residence times, so that curves could reach steady-state, or so that compound would be fully dissociated before the subsequent injection.
Scrubber 2 (www.biologic.com.au) was utilized for data processing, where signals were referenced against the blank surface (streptavidin+D-biotin) and further corrected for DMSO refractive index change and then “double-referenced” using a buffer-blank injection (Papalia 2006). Responses were fitted to either a 1:1 steady-state affinity model or a 1:1 kinetic model (that included a mass-transport component), available within Scrubber.

[1] = target: human HAQ isoform of STING (THP-1 STING Lucia ISG cells) (Homo sapiens (Human), UniProt Q86WV6, G230A/H232R/R293Q/R71H); assay: THP-1 STING Lucia ISG reporter cell line assay; type: cell-based; conditions: 24 h incubation, QUANTI-Luc luminescence
Chain of human HAQ isoform of STING (THP-1 STING Lucia ISG cells) (Q86WV6 whole entry R71H/G230A/H232R/R293Q, canonical isoform): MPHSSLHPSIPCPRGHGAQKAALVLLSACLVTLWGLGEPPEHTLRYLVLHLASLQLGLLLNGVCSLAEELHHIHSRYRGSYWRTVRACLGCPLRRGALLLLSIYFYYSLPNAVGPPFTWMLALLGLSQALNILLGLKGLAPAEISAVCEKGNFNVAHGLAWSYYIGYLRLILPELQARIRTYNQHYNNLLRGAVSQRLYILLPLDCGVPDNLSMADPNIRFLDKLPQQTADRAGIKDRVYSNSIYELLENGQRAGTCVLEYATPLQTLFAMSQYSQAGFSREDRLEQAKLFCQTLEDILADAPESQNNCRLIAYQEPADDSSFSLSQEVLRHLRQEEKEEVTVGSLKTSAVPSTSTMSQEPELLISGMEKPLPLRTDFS
Method in brief: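 THP-1 STING Lucia ISG cells (HAQ STING) or THP-1-Dual KI-hSTING-R232 cells (WT STING) treated 24 h at 37 °C with 11-point, 2.5-fold compound dilutions. ISG-driven Lucia luciferase read by luminescence, normalised to untreated wells and 40 μM ML RR-S2 CDA positive control; EC50 derived.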

Chain of human STING (WT) (Q86WV6 other isoform, or with tags, fused parts or gaps, stated change not applied): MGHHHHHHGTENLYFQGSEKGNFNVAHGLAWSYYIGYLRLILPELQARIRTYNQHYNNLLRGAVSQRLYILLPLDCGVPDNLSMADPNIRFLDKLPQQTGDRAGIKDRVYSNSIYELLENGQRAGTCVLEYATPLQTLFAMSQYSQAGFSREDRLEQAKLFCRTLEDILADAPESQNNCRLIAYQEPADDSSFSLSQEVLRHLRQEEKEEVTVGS

COc1ccc(-c2nc3c(OC)c(C(N)=O)ccc3n2CCn2c(-c3ccc(OC)cc3C(=O)O)nc3c(OC)c(C(N)=O)ccc32)c(C(=O)O)c1 [Example 41, 6,6′-(Ethane-1,2-diylbis(5-carbamoyl-4-methoxy-1H-benzo[d]imidazole-1,2-diyl))bis(3-methoxybenzoic acid)]
Kd (human STING (WT)): 200000 nM | EC50 [1]: > 40000 nM

COc1c(C(N)=O)ccc2c1nc(-c1cc(Cl)ccc1-c1nn[nH]n1)n2CCn1c(-c2cc(Cl)ccc2-c2nn[nH]n2)nc2c(OC)c(C(N)=O)ccc21 [Example 42, 1,1′-(Ethane-1,2-diyl)bis(2-(5-chloro-2-(2H-tetrazol-5-yl)phenyl)-4-methoxy-1H-benzo[d]imidazole-5-carboxamide)]
Kd (human STING (WT)): 139000 nM | EC50 [1]: 3210 nM

COc1c(C(N)=O)ccc2c1nc(-c1c(F)cc(F)cc1-c1nn[nH]n1)n2CCn1c(-c2c(F)cc(F)cc2-c2nn[nH]n2)nc2c(OC)c(C(N)=O)ccc21 [Example 43, 1,1′-(Ethane-1,2-diyl)bis(2-(2,4-difluoro-6-(2H-tetrazol-5-yl)phenyl)-4-methoxy-1H-benzo[d]imidazole-5-carboxamide)]
Kd (human STING (WT)): 1790 nM | EC50 [1]: 574 nM

COc1c(C(N)=O)ccc2c1nc(-c1c(F)cc(F)cc1-c1n[nH]c(=O)o1)n2CCn1c(-c2c(F)cc(F)cc2-c2n[nH]c(=O)o2)nc2c(OC)c(C(N)=O)ccc21 [Example 44, 1,1′-(Ethane-1,2-diyl)bis(2-(2,4-difluoro-6-(5-oxo-4,5-dihydro-1,3,4-oxadiazol-2-yl)phenyl)-4-methoxy-1H-benzo[d]imidazole-5-carboxamide)]
Kd (human STING (WT)): 11100 nM | EC50 [1]: 558 nM

COc1c(C(N)=O)ccc2c1nc(-c1c(F)cc(Cl)cc1Br)n2CCn1c(-c2c(F)cc(Cl)cc2Br)nc2c(OC)c(C(N)=O)ccc21 [Example 45, 1,1′-(Ethane-1,2-diyl)bis(2-(2-bromo-4-chloro-6-fluorophenyl)-4-methoxy-1H-benzo[d]imidazole-5-carboxamide)]
Kd (human STING (WT)): 29600 nM | EC50 [1]: 6790 nM

COc1c(C(N)=O)ccc2c1nc(-c1c(F)cc(Cl)cc1-c1nn[nH]n1)n2CCn1c(-c2c(F)cc(Cl)cc2-c2nn[nH]n2)nc2c(OC)c(C(N)=O)ccc21 [Example 46, 1,1′-(Ethane-1,2-diyl)bis(2-(4-chloro-2-fluoro-6-(2H-tetrazol-5-yl)phenyl)-4-methoxy-1H-benzo[d]imidazole-5-carboxamide)]
Kd (human STING (WT)): 413 nM | EC50 [1]: 218 nM

COc1c(C(N)=O)ccc2c1nc(-c1c(F)cccc1-c1nn[nH]n1)n2CCn1c(-c2c(F)cccc2-c2nn[nH]n2)nc2c(OC)c(C(N)=O)ccc21 [Example 48, 1,1′-(Ethane-1,2-diyl)bis(2-(2-fluoro-6-(2H-tetrazol-5-yl)phenyl)-4-methoxy-1H-benzo[d]imidazole-5-carboxamide)]
Kd (human STING (WT)): 512 nM | EC50 [1]: 415 nM

COc1c(C(N)=O)ccc2c1nc(-c1c(F)cccc1-c1n[nH]c(=O)o1)n2CCn1c(-c2c(F)cccc2-c2n[nH]c(=O)o2)nc2c(OC)c(C(N)=O)ccc21 [Example 49, 1,1′-(Ethane-1,2-diyl)bis(2-(2-fluoro-6-(5-oxo-4,5-dihydro-1,3,4-oxadiazol-2-yl)phenyl)-4-methoxy-1H-benzo[d]imidazole-5-carboxamide)]
Kd (human STING (WT)): 755 nM | EC50 [1]: 136 nM

COc1c(C(N)=O)ccc2c1nc(-c1c(F)cc(Cl)cc1-c1n[nH]c(=O)o1)n2CCn1c(-c2c(F)cc(Cl)cc2-c2n[nH]c(=O)o2)nc2c(OC)c(C(N)=O)ccc21 [Example 50, 1,1′-(Ethane-1,2-diyl)bis(2-(4-chloro-2-fluoro-6-(5-oxo-4,5-dihydro-1,3,4-oxadiazol-2-yl)phenyl)-4-methoxy-1H-benzo[d]imidazole-5-carboxamide)]
Kd (human STING (WT)): 359 nM | EC50 [1]: 174 nM
